Data reported in patent US11078157B1, “Compound embodiments that release H2S by reaction with a reactive compound and methods of making and using the same” (University of Oregon, priority 2018, dated 2021).
Entries after “also recorded” stand apart in the source; their conditions may differ.

Columns and labels:
[1] = H2S release via methylene blue assay (MBA); assay type: physicochemical; conditions: for H2S release on treatment with GSH: 500 μM GSH; for H2S release on treatment with cysteine methyl ester: 500 μM cysteine methyl ester, compared with cysteine; for entropy of activation (ΔS‡), Eyring analysis: varied temperature; for H2S release on treatment with homocysteine: 500 μM homocysteine; for H2S release on treatment with penicillamine: 500 μM penicillamine; for H2S release in the absence of added nucleophiles (hydrolysis): H2O/PBS, physiological pH; for H2S release on co-incubation with cysteine and GSH: cysteine 500 μM + GSH 1 mM, compared with cysteine alone; for second-order rate constant (k2) of cysteine-triggered H2S release: cysteine 250-1250 μM, pseudo-first order conditions, plot of [Cys] vs kobs; for dependence of H2S release on cysteine concentration: increasing cysteine concentrations; for reaction order in cysteine: plot of log[Cys] versus log(kobs); for H2S release in the presence of cysteine: 25 μM compound, cysteine 500 μM (20 equiv.); for H2S release / rate of H2S release, effect of alkyl functionalization: dithioesters 25 μM, cysteine 500 μM (20 equivalents), relative to compound 506a
Protocol: H2S Detection Materials and Methods—Phosphate buffered saline (PBS) tablets (1×, CalBioChem) were used to prepare buffered solutions (140 mM NaCl, 3 mM KCl, 10 mM phosphate, pH 7.4) in deionized water. Buffer solutions were sparged with N2 to remove dissolved oxygen and stored in an N2-filled glovebox. Donor stock solutions (in DMSO) were prepared inside an N2-filled glovebox and stored at −25° C. until immediately before use. Trigger stock solutions (in PBS) were freshly prepared in an N2-filled glovebox immediately before use.
General Procedure for Measuring H2S Release via Methylene Blue Assay (MBA)—Scintillation vials containing 20 mL of PBS were prepared in an N2-filled glovebox. To these solutions, 20 μL of 500 mM analyte stock solution (in PBS) was added for a final concentration of 500 μM. While stirring, the solutions were allowed to thermally equilibrate in heating block at the desired temperature for approximately 20-30 minutes. Immediately prior to donor addition, 0.5 mL solution of the methylene blue cocktail were prepared in disposable 1.5 mL cuvettes. The methylene blue cocktail solution contained: 200 μL of 30 mM FeCl3 in 1.2 M HCl, 200 μL of 20 mM N,N-dimethyl-p-phenylene diamine in 7.2 M HCl, and 100 μL of 1% (w/v) Zn(OAc)2. […] At set time points after the addition of donor, 500 μL reaction aliquots were added to the methylene blue cocktail solutions and incubated for 1 hour at room temperature shielded from light. Absorbance values at 670 nm were measured 1 hour after addition of reaction aliquot. Each experiment was performed in quadruplicate unless stated otherwise.
MBA Calibration Curve—Solutions containing 0.5 mL of the methylene blue cocktail and 0.5 mL PBS containing 500 μM cysteine were freshly prepared in disposable cuvettes (1.5 mL). Under inert conditions, a 10 mM stock solution of NaSH (Strem Chemicals) in PBS was prepared and diluted to 1 mM. Immediately after dilution, 1 mM NaSH was added to 1.0 mL solutions for final concentrations of 10, 20, 30, 40, and 50 μM. Solutions were mixed thoroughly, incubated at room temperature for 1 hour, and shielded from light. Absorbance values at 670 nm were measured after 1 hour.
In this example, the released H2S was measured and quantified using the methylene blue assay for H2S. In a typical use of this assay, aliquots from a reaction mixture with the H2S donor and cysteine are treated with 0.5 mL of a methylene blue assay mixture containing 0.1 mL zinc acetate (1% w/v), 0.2 mL FeCl3 (30 mM in 1.2 M HCl), and 0.2 mL N,N-dimethyl-p-phenylene diamine (20 mM in 7.2 M HCl)). After incubation for 1 hour, the absorbance at 670 nm is measured and converted to a H2S concentration by using the H2S calibration curve. To assess the H2S-releasing efficiency from the compound embodiments, a methylene blue calibration curve was used to quantify the H2S release (FIG. 2).

[2] = Reaction product analysis (preparative isolation and HPLC); assay type: physicochemical; conditions: preparative scale reaction, not further hydrolyzed to N-benzoyl-L-cysteine
Protocol: Compound 604a (0.39 mmol, 1.0 equivalents) was dissolved in 15 mL of 2:1 THF/PBS (10 mM, pH 7.4). L-cysteine methyl ester hydrochloride (1.17 mmol, 3.0 equivalents) was added in a single portion and stirred at room temperature for 2 hours. The reaction mixture was diluted with deionized H2O (˜20 mL) and extracted with CH2Cl2 (3×20 mL). The combined organic extracts were washed with brine and dried over MgSO4. After filtration, the solvent was removed under reduced pressure, and the purified by preparative thin layer chromatography (1:1 CH2Cl2 in hexanes). Compound 604a Rf=0.75 (63.6 mg, 76%) and CysDHT Rf=0.03 (11.0 mg, 13%) were isolated and characterized by ^1H and ^13C{^1H} NMR spectroscopy. The significant recovery of compound 604a is likely due to the lack of buffering capacity in the preparative-scale reaction.
To a 20 mL solution of 10% THF in PBS (10 mM, pH 7.4) containing 2 mM L-cysteine methyl ester (20 equivalents), 20 μL of 100 mM compound 604a in THF was added and stirred at room temperature. After 1 hour, a 1 mL reaction aliquot was analyzed by HPLC. HPLC analysis was performed on an Agilent 1260 HPLC instrument with a Poroshell 120 EC-C18 4.6×100 mm column and monitored at 280 nm. […] The concentration of CysDHT and phenol present at the end of the reaction were determined by measurement against calibration curves for each compound (see FIG. 4). […]

[3] = thiol; cited from earlier work
[4] = pKa and thiolate fraction of thiol triggers (literature); assay type: physicochemical; conditions: under physiological conditions
[5] = 25 μM donor, cysteine, after 1 hour

**Q.** Which results are given for `S=C(Sc1ccccc1)c1ccccc1` [compound 506a]?
**A.** H2S release on treatment with GSH ([1]; 25 μM donor): a significant H2S release was not observed; H2S release on treatment with cysteine methyl ester ([1]; 25 μM donor): did not affect H2S release; entropy of activation (ΔS‡), Eyring analysis ([1]; 25 μM donor, 500 μM cysteine): −23±1 eu; H2S release on treatment with homocysteine ([1]; 25 μM donor): a reduction in the H2S release rate; H2S release on treatment with penicillamine ([1]; 25 μM donor): significant H2S release was not observed; H2S release in the absence of added nucleophiles (hydrolysis) ([1]; 25 μM donor): H2S release was not observed; H2S release on co-incubation with cysteine and GSH ([1]; 25 μM donor): Minimal change on the cysteine-triggered H2S release; second-order rate constant (k2) of cysteine-triggered H2S release ([1]; 25 μM donor): 1.8 ± 0.1 M⁻¹ s⁻¹; H2S released after 1 hour [1, 5]: approximately 17 μM; H2S releasing efficiency [1, 5]: ~68%; dependence of H2S release on cysteine concentration ([1]; 25 μM donor): Increasing amounts of H2S released with increasing cysteine concentrations; H2S release with cysteine derivatives having masked thiol or amine ([1]; 25 μM donor, thiol or amine moiety of cysteine masked): reduced H2S release; experimentally-observed ΔH‡ ([1]; Eyring analysis, 25 μM donor, 500 μM cysteine): 14.4 kcal/mol; reaction order in cysteine [1]: first order in cysteine

**Q.** Which “H2S release in the presence of cysteine” value [1] does the source give for `O=C(Oc1ccccc1)c1ccccc1` [phenyl benzoate, reference compound] here?
**A.** lack of H2S release; also recorded: Neither of these compounds released H2S

**Q.** With `S=C(SCc1ccccc1)c1ccccc1` [compound 506d] as the molecule, how does the “H2S release / rate of H2S release, effect of alkyl functionalization” value (“H2S release / rate of H2S release” below) [1] read?
**A.** minimal H2S release

**Q.** For `O=C(Sc1ccccc1)c1ccccc1` [S-phenyl benzothioate, reference compound], which “H2S release in the presence of cysteine” value [1] is on record?
**A.** lack of H2S release; also recorded: Neither of these compounds released H2S

**Q.** Which “H2S release / rate of H2S release” value [1] does the source give for `CC(C)C(=S)Sc1ccccc1` [compound 506c] here?
**A.** enhanced rates of H2S release

**Q.** Which “H2S release / rate of H2S release” value [1] does the source give for `CC(=S)Sc1ccccc1` [compound 506b] here?
**A.** enhanced rates of H2S release

**Q.** With `COC(=O)C1CSC(c2ccccc2)=N1` (stereo not shown) [CysDHT, Methyl 2-phenyl-4,5-dihydrothiazole-4-carboxylate] as the molecule, how does the “stability of dihydrothiazole under aqueous conditions” value [2] read?
**A.** stable under aqueous conditions

**Q.** Which results are given for `N[C@@H](CCS)C(=O)O` [homocysteine]?
**A.** pKa [3]: ~10; effective concentration of thiolate [4]: ~0.03%

**Q.** Which “H2S release / rate of H2S release” value [1] does the source give for `CC(C)C(=S)SCc1ccccc1` [compound 506f] here?
**A.** relatively slow H2S release

**Q.** For `N[C@@H](CS)C(=O)O` [cysteine], which pKa [3] is on record?
**A.** ~8.5

**Q.** And the “effective concentration of thiolate” value [4]?
**A.** ~10%

**Q.** For `S=C(Oc1ccccc1)c1ccccc1` [compound 604a, O-Phenyl benzothioate], which “H2S release in the presence of cysteine” value [1] is on record?
**A.** result in H2S release

**Q.** What about the “H2S release on treatment with GSH” value ([1]; 25 μM donor) of the same molecule?
**A.** does not result in H2S release; also recorded: did not generate H2S

**Q.** And the “H2S release on treatment with N-acetylcysteine” value ([1]; 25 μM donor, 500 μM N-acetylcysteine)?
**A.** did not, in H2S release

**Q.** What about the “H2S release on treatment with N-acetylcysteine methyl ester” value ([1]; 25 μM donor, 500 μM N-acetylcysteine methyl ester) of the same molecule?
**A.** did not, in H2S release

**Q.** And the “H2S release on treatment with S-methylcysteine” value ([1]; 25 μM donor, 500 μM S-methylcysteine)?
**A.** did not, in H2S release

**Q.** What about the H2S releasing efficiency ([1]; 25 μM donor, 500 μM cysteine (20 equivalents)) of the same molecule?
**A.** 80%

**Q.** What about the “H2S release on treatment with cysteine methyl ester” value ([1]; 25 μM donor) of the same molecule?
**A.** did not affect H2S production

**Q.** What about the “entropy of activation (ΔS‡), Eyring analysis” value ([1]; 25 μM donor, 500 μM cysteine) of the same molecule?
**A.** −38±3 eu

**Q.** What about the “H2S release on treatment with homocysteine” value ([1]; 25 μM donor) of the same molecule?
**A.** result in H2S release; also recorded: resulted in H2S release, although at a slower rate than from treatment with cysteine

**Q.** And the “H2S release on treatment with lysine” value ([1]; 25 μM donor, 500 μM lysine)?
**A.** did not result in H2S release

**Q.** And the “H2S release on treatment with penicillamine” value ([1]; 25 μM donor)?
**A.** result in H2S release

**Q.** And the “H2S release on treatment with serine” value ([1]; 25 μM donor, 500 μM serine)?
**A.** did not result in H2S release

**Q.** What about the “H2S release in the absence of added nucleophiles (hydrolysis)” value ([1]; 25 μM donor) of the same molecule?
**A.** no hydrolysis-mediated H2S release was observed

**Q.** What about the “H2S release on treatment with porcine liver esterase (PLE)” value ([1]; 25 μM donor, PLE 1.0 U/mL) of the same molecule?
**A.** H2S generation was not observed

**Q.** What about the “H2S release on co-incubation with cysteine and GSH” value ([1]; 25 μM donor) of the same molecule?
**A.** results in H2S release, albeit at a slower rate than with Cys alone; also recorded: a reduced rate of H2S release was observed

**Q.** And the “Cysteine-triggered H2S release in the presence of lysine” value ([1]; 25 μM donor, cysteine 500 μM + lysine 500 μM)?
**A.** no change in H2S releasing-efficiency was observed

**Q.** What about the “second-order rate constant (k2) of cysteine-triggered H2S release” value ([1]; 25 μM donor) of the same molecule?
**A.** 9.1 ± 0.3 M⁻¹ s⁻¹

**Q.** What about the “dependence of H2S release on cysteine concentration” value ([1]; 25 μM donor) of the same molecule?
**A.** dose-dependent release of H2S; also recorded: Increased cysteine concentrations led to increased rates of H2S production

**Q.** What about the H2S released ([1]; 25 μM solution of donor, 500 μM cysteine (20 equivalents)) of the same molecule?
**A.** 20 µM

**Q.** And the “reaction order in cysteine” value [1]?
**A.** first-order dependence in cysteine

**Q.** With `CC(=S)SCc1ccccc1` [compound 506e] as the molecule, how does the “H2S release / rate of H2S release” value [1] read?
**A.** H2S release was observed
